Measured values taken from patent US20030236306A1, “Stabilized formulations of alpha adrenergic receptor antagonists and the uses thereof” (priority 2002, published 2003).
Entries after “also recorded” stand apart in the source; their conditions may differ. Structures can show the parent of a compound that is named as a salt.

Key:
[1] = Tonicity testing by vapor pressure osmometer; type: physicochemical; settings: 0.5 mg/ml disodium EDTA, pH 3.5
Text: A vapor pressure osmometer (Westcore Model 5500) was used to measure the osmolarity of the solutions as well as a control of Normal Saline solution (0.9% sodium chloride, USP). The tonicity of the phentolamine solutions was represented by osmolarity. The measured osmolarity was plotted against d-mannitol concentration. A linear relationship was obtained between the osmolarity and d-mannitol concentration. The concentration of d-mannitol required to achieve the same osmolarity as the Normal Saline solution was calculated for the 10 or 50 mM sodium acetate buffered solution.

[2] = tested on: local anesthetic containing an alpha adrenergic receptor agonist; settings: solution of 0.05 mg/ml; cited from earlier work
[3] = Effect of additives on stability, pH 3.5, 60° C.; type: physicochemical; settings: 10 mM Sodium Acetate
Method: (§1) The drug is monitored at a detection wavelength of 232 nm.
The pH value of the solutions was readjusted to pH 3.5, as required.
All samples were placed in 10 ml glass serum vials, stoppered with rubber closures with an inert coating (Daikyo Flurotec by WEST Pharmaceutical), and sealed with flip-top caps after sampling. Vials were placed at 60° C. after the weights were recorded.
Sampling occurred at the initial time point and on days 2, 7, and 14.
Vials were weighed, sampled, sealed, re-weighed, and replaced under the selected storage condition until testing at the subsequent time point.

[4] = tested on: local anesthesia by 2% polocaine (mepivacaine hydrochloride) with levonordefrin; test: Reversal of local anesthesia by LARA versus saline vehicle, bilateral injection in human subjects; type: in vivo; settings: three subjects, 0.05 mg/ml phentolamine mesylate (0.08 mg)
Method: An injection of the physiological saline vehicle (without phentolamine mesylate) served as the control. […] This was followed by injection of the phentolamine mesylate containing local anesthetic reversal agent (LARA) into one side of the oral cavity, and injection of the saline vehicle (control) solution into the opposite side of the oral cavity. The time to reversal of the local anesthetic effect on both sides was then recorded to determine whether there is a difference between the two sides.
The local anesthetic used was 2% polocaine (mepivacaine hydrochloride) with levonordefrin (1:20,000=0.05 mg/ml) (levonordefrin injection, USP) (Astra USA, Inc., Westborough, Mass. 01581). Levonordefrin is a sympathomimetic amine with a pharmacological profile similar to that of epinephrine, but with a lower potency.
Three healthy, male human subjects, age 34-50, volunteered to have local anesthetic injected in the mouth bilaterally under the lip in an easily repeatable location. The exact time of each injection was recorded. The position chosen was above (apical) the prominence of the root of the upper cuspid teeth. This is a common site selected to numb the cuspids, lateral incisors and upper lip. The volume of the local anesthetic injected was 1.7+0.1 ml on each side of the mouth. […]

[5] = Effect of sodium acetate buffer concentration on stability, pH 3.5, 60° C.; type: physicochemical
Method: as §1
Tightly sealed glass vials containing the test solutions were placed in an oven at 40° C. or 60° C. All samples were stored in the dark. Aliquots were removed at designated time points for HPLC analysis and pH measurement.
In conjunction with HPLC analysis, pH was measured. The measurement was performed using the same samples as used for the HPLC analysis. The pH meter was calibrated using pH 4.00 and 7.00 buffer standards prior to each measurement.
Samples were incubated at 60° C. with scheduled testing performed at day 0, 2, 7, and 14. The various buffer concentrations were prepared by diluting the 50 mM buffer with water and re-examining the pH value to determine if the pH 3.5 was constant. Measurements of pH were performed after HPLC analysis of the samples.

[6] = Wide-range pH-stability profiling at 40° C.; type: physicochemical; settings: 0.1 mg/ml, pH 2-8, 50 mM phosphate or acetate, FIG. 1
Method: as §1
All samples were stored in the dark.
The phosphate buffers were prepared by adding phosphoric acid (3.40 ml) to de-ionized (DI) water, adjusting the pH with 2 N NaOH, and bringing the volume to 1 L in a volumetric flask. The acetate buffers were prepared by adding acetic acid (2.95 ml) to water, adjusting the pH value with 2 N NaOH, and bringing the volume to 1 L in a volumetric flask.
Measurements were performed for pH after samples had been analyzed by HPLC.
In all stability studies, glass serum vials with rubber closures and flip-top seals were used for storage of the samples to minimize fluid loss. The weights of samples were measured at the beginning of the experiment, prior to sampling for analysis, and after resealing the vials to monitor for any weight loss due to heating. No significant weight loss was observed.
At each pH, the concentration was divided by the corresponding initial concentration (day 0) to obtain the percent recovery. The percent recovery was plotted against time for calculation of first-order rate kinetics. The slope of each pH line was calculated as the rate constant and plotted against pH to obtain a wide-range pH-stability profile.

Question: Which results are given for `Cc1ccc(N(CC2=NCCN2)c2cccc(O)c2)cc1` [Phentolamine Mesylate, phentolamine mesylate]?
Answer: Calculated % Mannitol for Isotonicity ([1]; 10 mM sodium acetate): 5.03%; Calculated % Mannitol for Isotonicity ([1]; 50 mM sodium acetate): 4.39%; Measured Osmolality ([1]; 2% Mannitol, 10 mM sodium acetate): 176 mmol/kg; Measured Osmolality ([1]; 2% Mannitol, 50 mM sodium acetate): 193 mmol/kg; Measured Osmolality ([1]; 3% Mannitol, 10 mM sodium acetate): 213 mmol/kg; Measured Osmolality ([1]; 3% Mannitol, 50 mM sodium acetate): 234 mmol/kg; Measured Osmolality ([1]; 4% Mannitol, 10 mM sodium acetate): 253 mmol/kg; Measured Osmolality ([1]; 4% Mannitol, 50 mM sodium acetate): 276 mmol/kg; reversal of local anesthetic effect [2]: can rapidly reverse the effect of a local anesthetic; Rate Constant (zero-order) ([3]; EDTA, 0.7 mg/ml): 0.438 µg/mL/day; Phentolamine Concentration ([3]; EDTA, 0.7 mg/ml, Day 0): 106 µg/mL; Phentolamine Concentration ([3]; EDTA, 0.7 mg/ml, Day 2): 103 µg/mL; Rate Constant (zero-order) ([3]; Glycerol, 25% w/v): 0.726 µg/mL/day; Rate Constant (zero-order) ([3]; NaCl, 50 mg/ml): 1.663 µg/mL/day; Rate Constant (zero-order) ([3]; Niacinamide, 50 mg/ml): -0.026 µg/mL/day; Rate Constant (zero-order) ([3]; No additive): 1.027 µg/mL/day; Rate Constant (zero-order) ([3]; Propylene glycol, 25% w/v): 1.019 µg/mL/day; Rate Constant (zero-order) ([3]; Sodium metabisulfite, 0.5 mg/ml): 1.903 µg/mL/day; Rate Constant (zero-order) ([3]; d-Mannitol, 40 mg/ml): 0.416 µg/mL/day; Rate Constant (zero-order) ([3]; α-Cyclodextran, 50 mg/ml): 0.501 µg/mL/day; side-effects [4]: no side-effects of any kind; pH ([5]; Sodium Acetate 0 mM (un-buffered), Day 0): 3.6; pH ([5]; Sodium Acetate 0 mM (un-buffered), Day 2): 4.4; pH ([5]; Sodium Acetate 0 mM (un-buffered), Day 7): 5.1; pH ([5]; Sodium Acetate 0 mM (un-buffered), Day 14): 5.3; pH ([5]; Sodium Acetate 5 mM, Day 0): 3.5; pH ([5]; Sodium Acetate 5 mM, Day 2): 3.8; pH ([5]; Sodium Acetate 5 mM, Day 7): 3.8; pH ([5]; Sodium Acetate 5 mM, Day 14): 3.8; pH ([5]; Sodium Acetate 10 mM, Day 0): 3.5; pH ([5]; Sodium Acetate 10 mM, Day 2): 3.7; pH ([5]; Sodium Acetate 10 mM, Day 7): 3.8; pH ([5]; Sodium Acetate 10 mM, Day 14): 3.7; pH ([5]; Sodium Acetate 50 mM, Day 0): 3.5; pH ([5]; Sodium Acetate 50 mM, Day 2): 3.6; pH ([5]; Sodium Acetate 50 mM, Day 7): 3.6; pH ([5]; Sodium Acetate 50 mM, Day 14): 3.6; wide-range pH-stability profile (rate of degradation) [6]: significant increase in rate of degradation was observed at pH above 7; also recorded: samples prepared in acetate buffers appeared to be more stable than their counterparts in the phosphate buffers
